# How the values were obtained:
# [1] = tested on: IL-5 mediated survival of human eosinophils; assay: IL-5 mediated eosinophil survival assay; assay type: cell-based
# Protocol: The potency of the test compound for IL-5 mediated eosinophil survival was measured in human eosinophils isolated from human whole blood (AllCells). Because IL-5 signals through JAK, this assay provides a measure of JAK cellular potency.
# Human eosinophils were isolated from fresh human whole blood (AllCells) of healthy donors. Blood was mixed with 4.5% Dextran (Sigma-Aldrich) in a 0.9% sodium chloride solution (Sigma-Aldrich). Red blood cells were left to sediment for 35 minutes. The leukocyte rich upper layer was removed and layered over Ficoll-Paque (GE Healthcare) and centrifuged at 600 g for 30 minutes. The plasma and mononuclear cell layers were removed before the granulocyte layer was lysed with water to remove any contaminating red blood cells. […] Purity was analyzed using a LSRII flow cytometer (BD Biosciences). […]
# After cytokine stimulation, cells were centrifuged at 300 g for 5 min and washed twice with cold DPBS (Life Technologies). To access viability and apoptosis, cells were incubated with Propidium Iodide (Thermo Fisher Scientific) and APC Annexin V (BD Biosciences) and analyzed using a LSRII flow cytometer (BD Biosciences). IC50 values were determined from analysis of the viability curves of percent cell viability vs compound concentration. Data are expressed as pIC50 (negative decadic logarithm IC50 ) values.
# [2] = tested on: IL-2/anti-CD3 stimulated IFNγ in human PBMCs; assay: Inhibition of IL-2/anti-CD3 stimulated IFNγ in human PBMCs; assay type: cell-based
# Protocol: The potency of the test compound for inhibition of interleukin-2 (IL-2)/anti-CD3 stimulated interferon gamma (IFNγ) was measured in human peripheral blood mononuclear cells (PBMCs) isolated from human whole blood (Stanford Blood Center). Because IL-2 signals through JAK, this assay provides a measure of JAK cellular potency.
# (1) Human peripheral blood mononuclear cells (PBMC) were isolated from human whole blood of healthy donors using a ficoll gradient. Cells were cultured in a 37° C., 5% CO2 humidified incubator in RPMI (Life Technologies) supplemented with 10% Heat Inactivated Fetal Bovine Serum (FBS, Life Technologies), 2 mM Glutamax (Life Technologies), 25 mM HEPES (Life Technologies) and 1X Pen/Strep (Life
# Technologies). Cells were seeded at 200,000 cells/well in media (50 μL) and cultured for 1 h. Compounds were serially diluted in DMSO and then diluted another 500-fold (to a 2× final assay concentration) in media. […]
# (2) After cytokine stimulation, cells were centrifuged at 500 g for 5 min and supernatants removed and frozen at −80° C. To determine the inhibitory potency of the test compound in response to IL-^2/anti-CD3, supernatant IFNγ concentrations were measured via ELISA (R&D Systems). IC50 values were determined from analysis of the inhibition curves of concentration of IFNγ vs compound concentration. Data are expressed as pIC50 (negative decadic logarithm IC50) values.
# [3] = tested on: IL-6 stimulated STAT3 phosphorylation in CD3+ T cells; assay: Inhibition of IL-6 stimulated pSTAT3 in CD3+ T cells; assay type: cell-based, human
# Description: A protocol analogous to that of Assay 10 was used to determine the potency of the test compound for inhibition of interleuken-6 (IL-6) stimulated STAT3 phosphorylation. An Alexa Fluor 647 conjugated anti-pSTAT3 antibody (pY705, Clone 4/P, BD Biosciences) was used to detect STAT3 phosphorylation.
smiles,measurement,setting,value
"CCc1cc(O)c(F)cc1-c1ccc2c(-c3nc4c([nH]3)CN(C(C)C)[C@H](C(=O)N3CC(N(C)C)C3)C4)n[nH]c2c1 [Example 2, (S)-(3-(dimethylamino)azetidin-1-yl)(2-(6-(2-ethyl-5-fluoro-4-hydroxyphenyl)-1H-indazol-3-yl)-5-isopropyl-4,5,6,7-tetrahydro-3H-imidazo [4,5-c]pyridin-6-yl)methanone]",inhibition of IL-5 mediated human eosinophil survival,[1],potently inhibit
same,inhibition of anti-CD3 and IL-2 induced release of IFNγ from activated human peripheral blood-isolated T cells,[2],inhibit
same,inhibition of IL-6 signaling,[3],inhibit IL-6 signaling

# — US11453668B2, “JAK inhibitors containing a 4-membered heterocyclic amide” (THERAVANCE BIOPHARMA R&D IP, LLC, priority 2017, dated 2022)
